In patent US20220402935A1, “HETEROCYCLIC COMPOUND” (FIMECS, INC., priority 2019, published 2022):
Counter-ions that a name gives are not always drawn.

Legend:
[1] = target: T1, human XIAP_BIR3 domain purified protein (Homo sapiens, UniProt P98170); assay: XIAP binding inhibitory activity (HTRF, b-Smac ligand); conditions: for inhibition at 3 µM: concentration of the test compound 3 μM, first symbol of cell, read-out: XIAP binding inhibition rate; for IC50: second symbol of cell, read-out: XIAP binding inhibition IC50 value
T1 construct: purchased R & D
T1 sequence (P98170 252-356 limits assumed): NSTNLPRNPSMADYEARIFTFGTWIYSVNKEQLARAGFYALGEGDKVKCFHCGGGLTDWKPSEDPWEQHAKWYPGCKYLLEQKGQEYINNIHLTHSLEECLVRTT
Method: Human XIAP binding inhibitory activity was measured by the Homogeneous Time Resolved Fluorescence (HTRF) method with using commercially available human XIAP_BIR3 domain purified protein (R & D) and as a ligand a Smac N-terminal peptide (AVPIAQK (SEQ ID NO: 1)) (hereinafter referred to as “b-Smac”; Peptide Research Laboratories, Inc.) biotinylated at the C-terminus according to a conventional method.
The HTRF method will be described in detail below.
The test compound diluted with a reaction buffer (25 mM HEPES Buffer containing 100 mM NaCl, 0.1% BSA, and 0.1% triton X-100, pH 7.5) was added to a 384-well white shallow bottom plate (Greiner 784076) at 1 μL/well and flash centrifuged for 30 seconds. Subsequently, human XIAP_BIR3 domain purified protein was diluted with the reaction buffer to obtain a 90 nM sample diluent, and the resultant sample diluent was added to the above-mentioned white superficial plate at 4.5 μL/well and flash centrifuged for 30 seconds. Subsequently, b-Smac diluted to 90 nM with the reaction buffer was added to the above-mentioned white superficial plat at 4.5 μL/well and flash centrifuged for 30 seconds. A mixed solution of Anti-6 HIS-Cryptate (Eu^3+ Cryptate-conjugated mouse monoclonal antibody anti-6 Histidine; cisbio) and Streptavidin-XL^eat (Highgrade XL665-conjugated streptavidin; cisbio) both diluted 100-fold with HTRF detection buffer (cisbio) at a volume ratio of 1:1 was added to the above white superficial plate at 10 μL/well. After flash centrifuging the white shallow bottom plate for 30 seconds, the white shallow bottom plate was left at room temperature for 4 hours or more in the dark. The white superficial plate after being left was subjected to fluorescence intensity measurement (excitation wavelength: 320 nm, fluorescence wavelength: 665 nm and 615 nm) by EnVision (Perkin Elmer). The binding inhibition rate (%) was calculated based on the HTRF ratio in the presence of the test compound to the HTRF ratio in the absence of the test compound (fluorescence intensity at 665 nm/fluorescence intensity at 615 nm).
The XIAP binding inhibition rate (%) of test compounds was evaluated.

[2] = target: T2, IRAK-M (Homo sapiens, UniProt Q9Y616); assay: IRAK-M binding inhibitory activity (KINOMEscan active site-dependent competitive assay); design: purchased Eurofins Discover X; conditions: for IC50: second symbol of cell, read-out: IRAK-M binding inhibition IC50 value; for remaining binding at 1 µM: concentration of the test compound 1 μM, first symbol of cell, read-out: IRAK-M binding inhibition activity % Ctrl
T2 sequence (Q9Y616 1-596): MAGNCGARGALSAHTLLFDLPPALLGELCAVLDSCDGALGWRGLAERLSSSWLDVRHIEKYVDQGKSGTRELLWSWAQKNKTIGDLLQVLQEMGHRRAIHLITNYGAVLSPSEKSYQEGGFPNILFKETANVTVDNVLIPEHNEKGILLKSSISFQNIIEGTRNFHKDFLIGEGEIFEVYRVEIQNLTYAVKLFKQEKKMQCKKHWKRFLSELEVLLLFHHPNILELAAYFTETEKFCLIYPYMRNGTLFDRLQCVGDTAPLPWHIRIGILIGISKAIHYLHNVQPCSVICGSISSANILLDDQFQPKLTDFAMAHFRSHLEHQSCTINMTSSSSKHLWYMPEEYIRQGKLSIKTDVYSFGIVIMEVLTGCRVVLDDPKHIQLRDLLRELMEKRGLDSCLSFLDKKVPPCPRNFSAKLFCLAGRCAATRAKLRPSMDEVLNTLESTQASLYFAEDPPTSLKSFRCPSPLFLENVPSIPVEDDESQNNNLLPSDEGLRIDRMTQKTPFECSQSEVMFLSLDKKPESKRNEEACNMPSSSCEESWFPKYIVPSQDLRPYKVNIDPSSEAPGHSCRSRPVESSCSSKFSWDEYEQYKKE
Outline: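 Active site-dependent competition binding assay (KINOMEscan) against human IRAK-M. Result expressed as % Ctrl = (compound signal − positive control signal)/(DMSO signal − positive control signal) × 100, where DMSO = 100% Ctrl and control compound = 0% Ctrl.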

## CN[C@@H](C)C(=O)N[C@H](C(=O)N1CCN(C(=O)c2cc3cc(F)ccc3n2CC(=O)N2C[C@@H](O)C[C@H]2COc2cc(CN3CCC(Oc4ccnc5ccsc45)CC3)on2)[C@@H](C)C1)C1CCCCC1 [Example 42, (S)-N-((S)-1-cyclohexyl-2-((S)-4-(5-fluoro-1-(2-((2S,4S)-4-hydroxy-2-(((5-((4-(thieno[3,2-b]pyridin-7-yloxy)piperidin-1-yl)methyl)isoxazol-3-yl)oxy)methyl)pyrrolidin-1-yl)-2-oxoethyl)-1H-indole-2-carbonyl)-3-methylpiperazin-1-yl)-2-oxoethyl)-2-(methylamino)propanamide]
[1]
  inhibition at 3 µM: > 25%
[2]
  IC50: 100 to 300 nM

## CN[C@@H](C)C(=O)N[C@H](C(=O)N1CCN(C(=O)c2c(OCCOCCOCCOc3cc(CN4CCC(Oc5ccnc6ccsc56)CC4)on3)c3cc(F)c(F)cc3n2C)CC1)C1CCCCC1 [Example 21, (S)-N-((S)-1-Cyclohexyl-2-(4-(5,6-difluoro-1-methyl-3-(2-(2-(2-((5-((4-(thieno[3,2-b]pyridin-7-yloxy)piperidin-1-yl)methyl)isoxazol-3-yl)oxy)ethoxy)ethoxy)ethoxy)-1H-indole-2-carbonyl)piperazin-1-yl)-2-oxoethyl)-2-(methylamino)propanamide hydrochloride]
[1]
  inhibition at 3 µM: 25 to 50%
[2]
  remaining binding at 1 µM: 25 to 50%

## CN[C@@H](C)C(=O)N[C@H](C(=O)N1CCN(C(=O)c2c(C(=O)NCCOCCOCCOc3cc(CN4CCC(Oc5ccnc6ccsc56)CC4)on3)c3cc(F)c(F)cc3n2C)CC1)C1CCCCC1 [Example 5, 2-(4-((S)-2-cyclohexyl-2-((S)-2-(methylamino)propanamido)acetyl)piperazine-1-carbonyl)-5,6-difluoro-1-methyl-N-(2-(2-(2-((5-((4-(thieno[3,2-b]pyridin-7-yloxy)piperidin-1-yl)methyl)isoxazol-3-yl)oxy)ethoxy)ethoxy)ethyl)-1H-indole-3-carboxamide]
[1]
  IC50: 300 to 3000 nM
[2]
  IC50: 300 to 1000 nM

## CN[C@@H](C)C(=O)N[C@H](C(=O)N1CCN(C(=O)c2c(OCCOCCOc3cc(CN4CCC(Oc5ccnc6ccsc56)CC4)on3)c3cc(F)c(F)cc3n2C)CC1)C1CCCCC1 [Example 22, (S)-N-((S)-1-cyclohexyl-2-(4-(5,6-difluoro-1-methyl-3-(2-(2-((5-((4-(thieno[3,2-b]pyridin-7-yloxy)piperidin-1-yl)methyl)isoxazol-3-yl)oxy)ethoxy)ethoxy)-1H-indole-2-carbonyl)piperazin-1-yl)-2-oxoethyl)-2-(methylamino)propanamide]
[1]
  inhibition at 3 µM: 25 to 50%
[2]
  remaining binding at 1 µM: 25 to 50%

## CN[C@@H](C)C(=O)N[C@H](C(=O)N1CCN(C(=O)c2cc3cc(F)ccc3n2CC(=O)N2CCOC[C@H]2COc2cc(CN3CCC(Oc4ccnc5ccsc45)CC3)on2)[C@@H](C)C1)C1CCCCC1 [Example 47, (S)-N-((S)-1-cyclohexyl-2-((S)-4-(5-fluoro-1-(2-oxo-2-((S)-3-(((5-((4-(thieno[3,2-b]pyridin-7-yloxy)piperidin-1-yl)methyl)isoxazol-3-yl)oxy)methyl)morpholino)ethyl)-1H-indole-2-carbonyl)-3-methylpiperazin-1-yl)-2-oxoethyl)-2-(methylamino)propanamide]
[1]
  inhibition at 3 µM: > 25%
[2]
  IC50: 1000 to 3000 nM

## CN[C@@H](C)C(=O)N[C@H](C(=O)N1CCN(C(=O)c2ccc3c(c2)cc(C)n3CCOCCOc2cc(CN3CCC(Oc4ccnc5ccsc45)CC3)on2)CC1)C1CCCCC1 [Example 54, (S)-N-((S)-1-cyclohexyl-2-(4-(2-methyl-1-(2-(2-((5-((4-(thieno[3,2-b]pyridin-7-yloxy)piperidin-1-yl)methyl)isoxazol-3-yl)oxy)ethoxy)ethyl)-1H-indole-5-carbonyl)piperazin-1-yl)-2-oxoethyl)-2-(methylamino)propanamide]
[1]
  IC50: < 300 nM
[2]
  remaining binding at 1 µM: 25 to 50%

## Cc1cc2ccc(C(=O)N3CCN(C(=O)CN4C[C@@H](C)NC[C@@H]4COCCOCCOCCOc4cc(CN5CCC(Oc6ccnc7ccsc67)CC5)on4)CC3)cn2c1 [Example 18, 2-((2R,5R)-5-methyl-2-((2-(2-(2-((5-((4-(thieno[3,2-b]pyridin-7-yloxy)piperidin-1-yl)methyl)isoxazol-3-yl)oxy)ethoxy)ethoxy)ethoxy)methyl)piperazin-1-yl)-1-(4-(2-methylindolizine-6-carbonyl)piperazin-1-yl)ethan-1-one]
[1]
  IC50: < 300 nM
[2]
  IC50: 300 to 1000 nM

## CN[C@@H](C)C(=O)N[C@H](C(=O)N1CCN(C(=O)c2c(C(=O)N(C)CCOCCOCCOc3cc(CN4CCC(Oc5ccnc6ccsc56)CC4)on3)c3cc(F)ccc3n2C)CC1)C(C)(C)O [Example 16, 5-fluoro-2-(4-((S)-3-hydroxy-3-methyl-2-((S)-2-(methylamino)propanamido)butanoyl)piperazine-1-carbonyl)-N,1-dimethyl-N-(2-(2-(2-((5-((4-(thieno[3,2-b]pyridin-7-yloxy)piperidin-1-yl)methyl)isoxazol-3-yl)oxy)ethoxy)ethoxy)ethyl)-1H-indole-3-carboxamide]
[1]
  IC50: 300 to 3000 nM
[2]
  remaining binding at 1 µM: 25 to 50%

## C[C@@H]1CN(CC(=O)N2CCN(C(=O)c3cc4cc(F)c(F)cc4n3C)C[C@H]2C)[C@@H](COCCOCCOCCOc2cc(CN3CCC(Oc4ccnc5ccsc45)CC3)on2)CN1 [Example 17, 1-((R)-4-(5,6-Difluoro-1-methyl-1H-indole-2-carbonyl)-2-methylpiperazin-1-yl)-2-((2R,5R)-5-methyl-2-((2-(2-(2-((5-((4-(thieno[3,2-b]pyridin-7-yloxy)piperidin-1-yl)methyl)isoxazol-3-yl)oxy)ethoxy)ethoxy)ethoxy)methyl)piperazin-1-yl)ethan-1-one hydrochloride]
[1]
  IC50: < 300 nM
[2]
  IC50: 300 to 1000 nM

## CN[C@@H](C)C(=O)N[C@H](C(=O)N1CCN(C(=O)c2c(C(=O)NCCOCCOCCOCCOc3cc(CN4CCC(Oc5ccnc6ccsc56)CC4)on3)c3cc(F)c(F)cc3n2C)CC1)C1CCCCC1 [Example 6, 2-(4-((S)-2-cyclohexyl-2-((S)-2-(methylamino)propanamido)acetyl)piperazine-1-carbonyl)-5,6-difluoro-1-methyl-N-(2-(2-(2-(2-((5-((4-(thieno[3,2-b]pyridin-7-yloxy)piperidin-1-yl)methyl)isoxazol-3-yl)oxy)ethoxy)ethoxy)ethoxy)ethyl)-1H-indole-3-carboxamide]
[1]
  IC50: 300 to 3000 nM
[2]
  IC50: 100 to 300 nM

## CN[C@@H](C)C(=O)N[C@H](C(=O)N1CCN(C(=O)c2c(C(=O)NCCOCCOCCOc3cc(CN4CCC(Oc5ccnc6ccsc56)CC4)on3)c3cc(F)c(F)cc3n2C)C[C@H]1C)C1CCCCC1 [Example 10, 2-((R)-4-((S)-2-cyclohexyl-2-((S)-2-(methylamino)propanamido)acetyl)-3-methylpiperazine-1-carbonyl)-5,6-difluoro-1-methyl-N-(2-(2-(2-((5-((4-(thieno[3,2-b]pyridin-7-yloxy)piperidin-1-yl)methyl)isoxazol-3-yl)oxy)ethoxy)ethoxy)ethyl)-1H-indole-3-carboxamide]
[1]
  IC50: 300 to 3000 nM
[2]
  remaining binding at 1 µM: 25 to 50%

## CN[C@@H](C)C(=O)N[C@H](C(=O)N1CCN(C(=O)c2c(C(=O)N(C)CCOCCOCCOc3cc(CN4CCC(Oc5ccnc6ccsc56)CC4)on3)c3cc(F)ccc3n2C)CC1)C1CCCCC1 [Example 3, 2-(4-((S)-2-cyclohexyl-2-((S)-2-(methylamino)propanamido)acetyl)piperazine-1-carbonyl)-5-fluoro-N,1-dimethyl-N-(2-(2-(2-((5-((4-(thieno[3,2-b]pyridin-7-yloxy)piperidin-1-yl)methyl)isoxazol-3-yl)oxy)ethoxy)ethoxy)ethyl)-1H-indole-3-carboxamide]
[1]
  IC50: 300 to 3000 nM
[2]
  IC50: 100 to 300 nM
